In PMC4546402, “Structural Model of the Bilitranslocase Transmembrane Domain Supported by NMR and FRET Data” (PLoS ONE, 2015):
Residues, ends and D or L forms follow the SMILES beside them. No end group written: not given here.

Columns and labels:
bilitranslocase (BTL) = conditions: ref [10]; cited from earlier work
TM2:TM2 = experiment: FRET titration of Atto488/Atto594-labelled peptides in SDS micelles, TM2:TM2 pair; format: binding; conditions: Atto488 donor/Atto594 acceptor, SDS micelle, TM2 with TM2, ratio of donor emission at 523 nm to acceptor emission at 627 nm, read-out: dissociation constant Kd
TM3:TM3 = experiment: FRET titration of Atto488/Atto594-labelled peptides in SDS micelles, TM3:TM3 pair; format: binding; conditions: Atto488 donor/Atto594 acceptor, SDS micelle, TM3 with TM3, ratio of donor emission at 523 nm to acceptor emission at 627 nm, read-out: dissociation constant Kd

C=CC1=C(C)/C(=C/c2[nH]c(Cc3[nH]c(/C=C4\NC(=O)C(C)=C4C=C)c(C)c3CCC(=O)O)c(CCC(=O)O)c2C)NC1=O [bilirubin]
allosteric effect on BTL (bilitranslocase (BTL)): positive allosteric effectors, inducing the BTL into its high-affinity state | effect on conversion between the two metastable BTL conformers (bilitranslocase (BTL)): accelerated

O=C(O)c1cccnc1 [nicotinic acid]
allosteric effect on BTL (bilitranslocase (BTL)): positive allosteric effectors, inducing the BTL into its high-affinity state

CC[C@H](C)[C@H](NC(=O)[C@H](C)NC(=O)[C@H](CCCCN)NC(=O)[C@H](CS)NC(=O)[C@H](CC(C)C)NC(=O)CNC(=O)[C@H](CO)NC(=O)[C@@H](NC(=O)CNC(=O)[C@H](C)NC(=O)[C@H](CO)NC(=O)[C@H](Cc1ccccc1)NC(=O)[C@@H]1CCCN1C(=O)[C@H](CO)NC(=O)[C@H](CCC(N)=O)NC(=O)[C@H](CC(C)C)NC(=O)[C@@H](NC(=O)[C@H](C)NC(=O)[C@@H](NC(=O)[C@H](Cc1ccccc1)NC(=O)[C@H](CC(C)C)NC(=O)[C@H](CS)NC(=O)[C@H](Cc1ccccc1)NC(=O)[C@H](CO)NC(=O)[C@@H](N)CO)C(C)C)[C@@H](C)O)C(C)C)C(=O)N[C@@H](CC(C)C)C(=O)N[C@@H](CC(C)C)C(=O)N[C@@H](CCCCN)C(=O)N[C@@H](CCCCN)C(=O)N[C@@H](CCCCN)C(=O)N[C@@H](CCCCN)C(=O)O [TM2:TM2] (H-SSFCLFVATLQSPFSAGVSGLCKAILLKKKK-OH)
Kd (TM2:TM2): 71.9 µM

GSVQCAGLISLPIAIEFTYKKKK [TM3:TM3]
Kd (TM3:TM3): 191 µM
